*1 amine or outer side, *2 acyl side, *3 side chain or, on linkers, in order; H or OH if unused. Where a SMILES comes first, the peptide text is derived from it. Side-chain parts run from the residue outwards. [ ]: non-standard residue; d: D form. The star is where a group is joined. Shikimoyl = O=C(C1=C[C@@H](O)[C@@H](O)[C@H](O)C1)*; dPhe(4-Cl) = N[C@H](Cc1ccc(Cl)cc1)C(=O)O; d2Nal = N[C@H](Cc1ccc2ccccc2c1)C(=O)O; Lys(iPr) = CC(C)NCCCC[C@H](N)C(=O)O; NMeY = CN[C@@H](Cc1ccc(O)cc1)C(=O)O; Ethylenediamine = C(CN[*:2])N[*:1]; d3Pal = N[C@H](Cc1cccnc1)C(=O)O; Salicyloyl = O=C(c1ccccc1O)*; Nicotinoyl = O=C(c1cccnc1)*; 2Furoyl = O=C(c1ccco1)*; CO = O=C([*:1])[*:2]; Ahx = NCCCCCC(=O)O; GABA = NCCCC(=O)O; azaGly = NNC(=O)O; βAla = NCCC(=O)O
Each molecule was assayed against T1, LHRH receptor (Rattus norvegicus, UniProt P30969) (assay: in vitro LHRH antagonist potency (pA2) against the agonist leuprolide). Conditions: negative logarithm of the antagonist concentration which shifts the response curve produced by the agonist leuprolide to two-fold higher concentration.
T1 construct: endogenous in cells
T1 sequence (P30969 1-327): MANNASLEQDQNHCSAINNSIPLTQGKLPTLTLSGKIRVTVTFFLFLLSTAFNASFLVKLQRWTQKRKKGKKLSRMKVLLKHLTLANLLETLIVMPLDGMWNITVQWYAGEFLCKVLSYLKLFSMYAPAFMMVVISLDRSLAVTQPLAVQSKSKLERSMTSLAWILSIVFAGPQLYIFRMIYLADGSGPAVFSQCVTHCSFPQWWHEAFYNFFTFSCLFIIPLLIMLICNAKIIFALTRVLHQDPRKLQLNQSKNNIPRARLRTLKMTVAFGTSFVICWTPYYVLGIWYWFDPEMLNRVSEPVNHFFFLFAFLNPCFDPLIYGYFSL
Format: cell-based
Procedure: Representative compounds of the present invention were evaluated in in vitro tests for receptor binding (pKI) and for LHRH antagonist potency (pA2). The tests employed the methods detailed in F. Haviv, et al., J. Med. Chem., 32: 2340-2344 (1989). The receptor binding affinities (pKI) are the negative logarithms of the equilibtirum dissociation constants (pA2) are the negative logarithms of the concentration of antagonist which shift the response curve roduced by the agonist leuprolide to two-fold higher concentration. (Leuprolide is the LHRH agonist having the structure 5-oxo-Pro^1 -His^2 -Trp^3 -Ser^4 -Tyr^5 -D-Leu^6 -Leu^7 -Arg^8 -Pro^9 -NHEt and is disclosed and claimed in U.S. Pat. No. 4,005,063.) Typically pA2 values of 9.5 or greater are indicative of good LHRH antagonist potency.
For CC(=O)N[C@H](Cc1ccc2ccccc2c1)C(=O)N[C@H](Cc1ccc(Cl)cc1)C(=O)N[C@H](Cc1cccnc1)C(=O)N[C@@H](CO)C(=O)N(C)[C@@H](Cc1ccc(O)cc1)C(=O)N[C@H](CCCCNC(=O)CNC(=O)C1=C[C@@H](O)[C@@H](O)[C@H](O)C1)C(=O)N[C@@H](CC(C)C)C(=O)N[C@@H](CCCNC(=N)N)C(=O)N1CCC[C@H]1C(=O)N[C@H](C)C(N)=O [Example 17, NAc-D2Nal^1 -D4ClPhe^2 -D3Pal^3 -Ser^4 -NMeTyr^5 -DLys(N-epsilon-Gly-Shikimyl)^6 -Leu^7 -Arg^8 -Pro^9 -DAla^10 NH2] (Ac-[d2Nal][dPhe(4-Cl)][d3Pal]S[NMeY][dK]([Gly-Shikimoyl])LRP[dA]-NH2), the Kb was 7.24 pM. CC(=O)N[C@H](Cc1ccc2ccccc2c1)C(=O)N[C@H](Cc1ccc(Cl)cc1)C(=O)N[C@H](Cc1cccnc1)C(=O)N[C@@H](CO)C(=O)N(C)[C@@H](Cc1ccc(O)cc1)C(=O)N[C@H](CCCCNC(=O)CNC(=O)c1ccco1)C(=O)N[C@@H](CC(C)C)C(=O)N[C@@H](CCCNC(=N)N)C(=O)N1CCC[C@H]1C(=O)N[C@H](C)C(N)=O [Example 18, NAc-D2Nal^1 -D4ClPhe^2 -D3Pal^3 -Ser^4 -NMeTyr^5 -DLys(N-epsilon-Gly-2Furoyl)^6 -Leu^7 -Arg^8 -Pro^9 -DAla^10 NH2] (Ac-[d2Nal][dPhe(4-Cl)][d3Pal]S[NMeY][dK]([Gly-2Furoyl])LRP[dA]-NH2) gave a Kb of 3.09 pM. CC(=O)N[C@H](Cc1ccc2ccccc2c1)C(=O)N[C@H](Cc1ccc(Cl)cc1)C(=O)N[C@H](Cc1cccnc1)C(=O)N[C@@H](CO)C(=O)N(C)[C@@H](Cc1ccc(O)cc1)C(=O)N[C@H](CCCCNC(=O)CCCCCNC(=O)CCNC(=O)c1cccnc1)C(=O)N[C@@H](CC(C)C)C(=O)N[C@@H](CCCCNC(C)C)C(=O)N1CCC[C@H]1C(=O)N[C@H](C)C(N)=O [Example 19a, NAc-D2Nal-D4ClPhe^2 -D3Pal^3 -Ser^4 -NMeTyr^5 -DLys[N-epsilon-(N'-epsilon-Aminocaproyl)(N"-beta-Alanyl)-Nicotinyl]^6-Leu^7 -Lys(N-epsilon-Isopropyl)^8 -Pro^9 -DAla^10 NH2] (Ac-[d2Nal][dPhe(4-Cl)][d3Pal]S[NMeY][dK]([Ahx-βAla-Nicotinoyl])L[Lys(iPr)]P[dA]-NH2) showed a Kb of 24 pM. With CC(=O)N[C@H](Cc1ccc2ccccc2c1)C(=O)N[C@H](Cc1ccc(Cl)cc1)C(=O)N[C@H](Cc1cccnc1)C(=O)N[C@@H](CO)C(=O)N(C)[C@@H](Cc1ccc(O)cc1)C(=O)N[C@H](CCCCNC(=O)CNC(=O)c1ccccc1O)C(=O)N[C@@H](CC(C)C)C(=O)N[C@@H](CCCCNC(C)C)C(=O)N1CCC[C@H]1C(=O)N[C@H](C)C(N)=O [Example 19b, NAc-D2Nal^1 -D4ClPhe^2 -D3Pal^3 -Ser^4 -NMeTyr^5 -DLys[N-epsilon-Gly-Salicyl]^6 -Leu^7 -Lys(N-epsilon-Isopropyl)^8 -Pro^9 -DAla^10 NH2] (Ac-[d2Nal][dPhe(4-Cl)][d3Pal]S[NMeY][dK]([Gly-Salicyloyl])L[Lys(iPr)]P[dA]-NH2) the Kb was 6.61 pM. With CC(=O)N[C@H](Cc1ccc2ccccc2c1)C(=O)N[C@H](Cc1ccc(Cl)cc1)C(=O)N[C@H](Cc1cccnc1)C(=O)N[C@@H](CO)C(=O)N(C)[C@@H](Cc1ccc(O)cc1)C(=O)N[C@H](CCCCNC(=O)CNC(=O)CNC(=O)c1cccnc1)C(=O)N[C@@H](CC(C)C)C(=O)N[C@@H](CCCCNC(C)C)C(=O)N1CCC[C@H]1C(=O)N[C@H](C)C(N)=O [Example 19c, NAc-D2Nal^1 -D4ClPhe^2 -D3Pal^3 -Ser^4 -NMeTyr^5 -DLys[N-epsilon-Gly-Gly-Nicotinyl]^6 -Leu^7 -Lys(N-epsilon-Isopropyl)^8 -Pro^9 -DAla^10 NH2] (Ac-[d2Nal][dPhe(4-Cl)][d3Pal]S[NMeY][dK]([Gly-Gly-Nicotinoyl])L[Lys(iPr)]P[dA]-NH2) the Kb was 3.31 pM. CC(=O)N[C@H](Cc1ccc2ccccc2c1)C(=O)N[C@H](Cc1ccc(Cl)cc1)C(=O)N[C@H](Cc1cccnc1)C(=O)N[C@@H](CO)C(=O)N(C)[C@@H](Cc1ccc(O)cc1)C(=O)N[C@H](CCCCNC(=O)CCNC(=O)NNC(=O)c1cccnc1)C(=O)N[C@@H](CC(C)C)C(=O)N[C@@H](CCCCNC(C)C)C(=O)N1CCC[C@H]1C(=O)N[C@H](C)C(N)=O [Example 25a, NAc-D2Nal^1 -D4ClPhe^2 -D3Pal^3 -Ser^4 -NMeTyr^5 -DLys[N-epsilon-(beta-Alanyl)-Azagly-Nicotinyl]^6 -Leu^7 -Lys(N-epsilon-Isopropyl)^8 -Pro^9 -DAla^10 NH2] (Ac-[d2Nal][dPhe(4-Cl)][d3Pal]S[NMeY][dK]([βAla-azaGly-Nicotinoyl])L[Lys(iPr)]P[dA]-NH2) showed a Kb of 36.3 pM. Work on CC(=O)N[C@H](Cc1ccc2ccccc2c1)C(=O)N[C@H](Cc1ccc(Cl)cc1)C(=O)N[C@H](Cc1cccnc1)C(=O)N[C@@H](CO)C(=O)N(C)[C@@H](Cc1ccc(O)cc1)C(=O)N[C@H](CCCCNC(=O)CCCNC(=O)NNC(=O)c1cccnc1)C(=O)N[C@@H](CC(C)C)C(=O)N[C@@H](CCCCNC(C)C)C(=O)N1CCC[C@H]1C(=O)N[C@H](C)C(N)=O [Example 25b, NAc-D2Nal^1 -D4ClPhe^2 -D3Pal^3 -Ser^4 -NMeTyr^5 -DLys[N-epsilon-(gamma-Aminobutyryl)-Azagly-Nicotinyl]^6 -Leu^7 -Lys(N-epsilon-Isopropyl)^8 -Pro^9 -DAla^10 NH2] (Ac-[d2Nal][dPhe(4-Cl)][d3Pal]S[NMeY][dK]([GABA-azaGly-Nicotinoyl])L[Lys(iPr)]P[dA]-NH2) yielded a Kb of 40.7 pM. For CC(=O)N[C@H](Cc1ccc2ccccc2c1)C(=O)N[C@H](Cc1ccc(Cl)cc1)C(=O)N[C@H](Cc1cccnc1)C(=O)N[C@@H](CO)C(=O)N(C)[C@@H](Cc1ccc(O)cc1)C(=O)N[C@H](CCCCNC(=O)NCCNC(=O)c1ccco1)C(=O)N[C@@H](CC(C)C)C(=O)N[C@@H](CCCNC(=N)N)C(=O)N1CCC[C@H]1C(=O)N[C@H](C)C(N)=O [Example 36, NAc-D2Nal^1 -D4ClPhe^2 -D3Pal^3 -Ser^4 -NMeTyr^5 -DLys[N-epsilon-(N'-Carbonyl-Diaminoethane-N"-Furoyl)]^6 -Leu^7 -Arg^8 -Pro^9 -DAla^10 NH2] (Ac-[d2Nal][dPhe(4-Cl)][d3Pal]S[NMeY][dK]([CO-Ethylenediamine-2Furoyl])LRP[dA]-NH2), the Kb was 10.7 pM. Work on CC(=O)N[C@H](Cc1ccc2ccccc2c1)C(=O)N[C@H](Cc1ccc(Cl)cc1)C(=O)N[C@H](Cc1cccnc1)C(=O)N[C@@H](CO)C(=O)N(C)[C@@H](Cc1ccc(O)cc1)C(=O)N[C@H](CCCCNC(=O)NNC(=O)c1ccco1)C(=O)N[C@@H](CC(C)C)C(=O)N[C@@H](CCCNC(=N)N)C(=O)N1CCC[C@H]1C(=O)N[C@H](C)C(N)=O [Example 37a, NAc-D2Nal^1 -D4ClPhe^2 -D3Pal^3 -Ser^4 -NMeTyr^5 -DLys(N-epsilon-Azagly-2-Furoyl)^6 -Leu^7 -Arg^8 -Pro^9 -DAla^10 NH2] (Ac-[d2Nal][dPhe(4-Cl)][d3Pal]S[NMeY][dK]([azaGly-2Furoyl])LRP[dA]-NH2) yielded a Kb of 16.6 pM. With CC(=O)N[C@H](Cc1ccc2ccccc2c1)C(=O)N[C@H](Cc1ccc(Cl)cc1)C(=O)N[C@H](Cc1cccnc1)C(=O)N[C@@H](CO)C(=O)N(C)[C@@H](Cc1ccc(O)cc1)C(=O)N[C@H](CCCCNC(=O)NNC(=O)c1cccnc1)C(=O)N[C@@H](CC(C)C)C(=O)N[C@@H](CCCNC(=N)N)C(=O)N1CCC[C@H]1C(=O)N[C@H](C)C(N)=O [Example 37b, NAc-D2Nal^1 -D4ClPhe^2 -D3Pal^3 -Ser^4 -NMeTyr^5 -DLys(N-epsilon-Azagly-Nicotinyl)^6 -Leu^7 -Arg^8 -Pro^9 -DAla^10 NH2] (Ac-[d2Nal][dPhe(4-Cl)][d3Pal]S[NMeY][dK]([azaGly-Nicotinoyl])LRP[dA]-NH2) the Kb was 5.62 pM.

From patent US5698522A, “6-position modified decapeptide LHRH antagonists” (Abbott Laboratories, priority 1995, dated 1997)
